Where “and” joins values, the source holds several entries; their conditions need not be identical. Identical values can stand only once.
Columns and labels:
[1] = target: T1, Lifeact-mCherry binding to actin (Oryctolagus cuniculus, UniProt P68135); assay: F-actin and Lifeact-mCherry cosedimentation assay; conditions: for Effect on actin-Lifeact cosedimentation: 10 μM Hit compound
T1 construct: from tissue; host or cells: actin: rabbit psoas muscle; Lifeact-mCherry: made in house in E. coli (pE-SUMOpro)
Method: (§1) Actin was purified from acetone powder derived from the psoas muscle of New Zealand white rabbit (Oryctolagus cuniculus) ([46]). Filamentous (F)-actin was stored for up to 3 days on ice before use in binding assays. Within an hour of the binding assay, the F-actin was clarified at 100,000g at 4 °C for 10 min prior to setting up binding assays. The L253P β-III-spectrin ABD was expressed in E. coli BL21(DE3) (Novagen). The ABD was purified and the His-SUMO tag proteolytically removed, as previously described ([14]), except size-exclusion chromatography was not performed due to the high purity of the ABD protein. Lifeact-mCherry protein was similarly prepared. A Bradford assay was performed to determine clarified F-actin and ABD protein concentrations.
(§2) F-actin and ABD binding assays were performed as previously described ([10]). In brief, binding assays used 1 μM ABD protein, 1 μM F-actin, and 1 to 50 μM compound (as indicated) or DMSO control for a total reaction volume of 60 μl in F-buffer containing 10 mM Tris, pH 7.5, 150 mM NaCl, 0.5 mM ATP, 2 mM MgCl2, and 1 mM DTT. Following 30 min incubation at room temperature (21 °C). F-actin was pelleted using centrifugation at 100,000g at 25 °C for 30 min. Unbound ABD in the supernatant was measured following SDS-PAGE and Coomassie blue staining in accord ([10]). In addition, control cosedimentations assays that lacked actin were performed to test if compounds cause ABD aggregation. F-actin and Lifeact-mCherry binding assays were undertaken with 2 μM Lifeact-mCherry, 30 μM F-actin, and 1 to 50 μM compound (as indicated) or DMSO control for a total reaction volume of 80 μl in F-buffer. For a no-actin binding control, an assay sample with no F-actin was also set up. Binding reactions were allowed to reach equilibrium at room temperature (21 °C) for 30 min, and then F-actin was pelleted by centrifugation at 100,000g at 25 °C for 30 min. The amount of unbound Lifeact-mCherry was sampled by loading 7 μl of spin supernatant on a low-volume black bottom 384-well plate (Greiner). Amount of mCherry was determined by acquiring fluorescence spectrum peak intensity at ∼600 nm using a spectral unmixing plate reader (Fluorescence Innovations, Inc) equipped with a 532 nm laser (Laserglow Technologies, Ontario, Canada) for excitation, 532 nm long-pass filter for emission, and PMT for emission detection. The fraction of Lifeact-mCherry bound to F-actin was determined by subtracting from one the fraction of supernatant fluorescence intensity relative to the no-actin control sample:(3) Lifeactboundfraction=1−Fcompound/DMSO/FNo−actin where Fcontrol/DMSO is the peak mCherry fluorescence of assay samples containing compound or DMSO control, and Fno-actin is the peak mCherry fluorescence of assay samples that contained no F-actin.

[2] = target: T2, binding of the mutant β-III-spectrin L253P ABD to F-actin (Homo sapiens, UniProt O15020, L253P); assay: Primary live-cell FRET assay (GFP-ABD-L253P + Lifeact-mCherry) in HEK293-6E cells; assay type: cell-based; conditions: for Effect of Hit compound on primary FRET: LOPAC Hits (10 μM screen, 4SD threshold, 120 min) and dose response
T2 construct: the β-III-spectrin (human) ABD residues 1 to 284; expressed in transfected cells; host or cells: HEK293-6E (pTT5 vector, transient transfection)
T2 sequence (O15020 1-284 L253P): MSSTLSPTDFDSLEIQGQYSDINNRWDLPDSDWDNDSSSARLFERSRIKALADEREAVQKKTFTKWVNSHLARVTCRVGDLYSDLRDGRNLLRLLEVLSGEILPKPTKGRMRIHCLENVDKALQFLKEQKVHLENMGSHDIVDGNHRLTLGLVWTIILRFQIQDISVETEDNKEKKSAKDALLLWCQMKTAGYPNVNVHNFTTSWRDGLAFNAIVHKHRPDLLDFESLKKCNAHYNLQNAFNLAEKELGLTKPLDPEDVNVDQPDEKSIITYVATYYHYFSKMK
Method: To develop a biosensor that monitors the binding of mutant L253P β-III-spectrin to actin filaments in live cells, a FRET approach was tested. A FRET donor construct consisting of green fluorescent protein fused to the N terminus of the mutant ABD (GFP-ABD-L253P) was coexpressed in HEK293-EBNA1-6E (HEK293-6E) cells with a FRET acceptor construct consisting of the actin-binding peptide, Lifeact, fused to the N terminus of red fluorescent protein, mCherry (Lifeact-mCherry). Lifeact is a 17 amino acid peptide derived from the yeast actin-binding protein, ABP140 ([15]). […] The cryo-EM structures of ABD L253P and Lifeact on actin indicate that the binding sites overlap on actin units. With ABD L253P and Lifeact bound on neighboring actin units, we predicted an average distance of ∼80 Å between GFP and mCherry (Fig. 1). With a known Förster distance R0 of 52.4 Å ([17]), this corresponds to FRET value of 0.07, a sufficient signal for a biosensor platform. To design a system most compatible for large production and eventual screening of 50,000+ compound libraries, we used HEK293-6E cells, a suspension cell line that yields greater levels (>threefold) of recombinant protein expression ([18], [19]).
With a constant amount of GFP-ABD-L253P expressed, increased Lifeact-mCherry expression increases FRET with an exponential plateau to 0.12 (Fig. 2A). To measure the nonspecific component of our FRET readout, we concurrently tested expression of mCherry in place of Lifeact-mCherry. For comparison, the Lifeact-mCherry and mCherry fluorescence intensity values (normalized to 1:1 GFP-ABD:Lifeact-mCherry sample) are plotted on the X-axis for samples transfected with different donor-to-acceptor DNA ratios. […] With the trade-off between high FRET and minimal nonspecific FRET, the donor:acceptor ratio 1:2 was chosen for the experiments that followed (Fig. 2A). […] Of note, we also tested the biosensor using WT-ABD, which yielded substantially lower FRET (Fig. S1), consistent with the 1000-fold decrease in affinity of WT-ABD for actin ([10]). We proceeded to test the compatibility of the GFP-ABD-L253P and Lifeact-mCherry assay for primary compound screening and the GFP-ABD-L253P and mCherry assay as a potential high-throughput counter screen.
To test the performance of the assay in HTS, the 1280 LOPAC compounds, together with 256 DMSO controls, were dispensed in 5 nl volumes into individual wells of 1536-well microplates and stored at −20 °C until use. To test the reproducibility of replicate screens on the same day, a single batch of HEK293 cells was transfected with GFP-ABD-L253P and Lifeact-mCherry. In addition, control cells were transfected with only GFP-ABD-L253P, to determine compound effect on donor-only lifetime (τD). To test reproducibility of the screens across different days, identical transfections were performed on another batch of HEK293-6E cells on a second day. Following plate thaw, 5 μl of assay cells were loaded in each well via a multidrop liquid dispenser, and a time course of compound effects (at 20, 120, and 180 min post load) on fluorescence lifetime was acquired using a fluorescence lifetime plate reader (FLT-PR). This technology has been advanced to high-density 1536-well plates in recent years for successful HTS using a range of protein biosensors including sarcoplasmic reticulum Ca-ATPase ([24], [25], [26], [27]), ryanodine receptor ([23], [28]), actin ([20]), tumor necrosis factor receptor 1 ([29], [30]), and tau ([31]).
At 2 × 10^6 cells/ml, HEK293-6E cells were transfected with GFP-ABD-L253P or GFP-ABD-WT (2.4 μg), Lifeact-mCherry (2.4–16.8 μg), mCherry (1.2–16.8 μg), and/or pTT5 (0.8–17.6 μg), as indicated, using the 293fectin protocol (Thermo Fisher Scientific) with 20 μg total DNA. Cells were transfected with either GFP-ABD-L253P or –WT, but coexpression of the WT and mutant isoform was not explored in this study. The cells were harvested 24 h later by centrifugation at 100g for 5 min and then washed twice with PBS. […]

[3] = test system: mammalian cells; conditions: cited from earlier work
[4] = test system: HEK293-6E cells; assay: Trypan blue cell viability assay; assay type: cell-based
Method: HEK293-6E cell viability was measured using trypan blue (0.03%) staining and a Countess Automated Cell counter (Invitrogen). Nontransfected HEK293-6E cells were spun at 100g for 5 min at 21 °C and resuspended in 10 ml of PBS. The centrifugation and resuspension were repeated twice more. Final cell concentration was 1 × 10^6 cells/ml. Cells were incubated with 2% DMSO or 3 to 50 μM compound (as indicated) for 3 h at room temperature (21 °C). After addition of 100 μl of 0.06% trypan blue solution in PBS, 10 μl was loaded on a slide and injected into the cell counter, and cell viability was measured.

[5] = target: T3, ABD L253P (Homo sapiens, UniProt O15020, L253P); assay: Sedimentation of ABD L253P without actin (aggregation); conditions: 10 μM Hit compound, n = 4
T3 construct: the β-III-spectrin (human) ABD residues 1 to 284; His-SUMO (cleaved yes); made in house; host or cells: E. coli BL21(DE3), vector pE-SUMOpro
T3 sequence (O15020 1-284 L253P): as above
Method: In addition to a reduction in cell viability, the primary and counter screen may be sensitive to compounds that promote ABD-L253P protein aggregation. […] Our assay measuring ABD-L253P cosedimentation with actin is not sensitive to ABD aggregation, as it is designed to work under conditions where ∼90% ABD-L253P cosediments with actin. Nevertheless, we repeated these measurements in the absence of actin.
as §2

[6] = target: T4, ABD-L253P binding to actin (Homo sapiens, UniProt O15020, L253P); assay: F-actin and ABD cosedimentation assay; conditions: 3 μM swinholide A, 50 μM tegaserod; n = 4
T4 construct: the β-III-spectrin (human) ABD residues 1 to 284; His-SUMO (cleaved yes); made in house; host or cells: E. coli BL21(DE3), vector pE-SUMOpro; actin from rabbit psoas muscle tissue
T4 sequence (O15020 1-284 L253P): as above
Method: as §1, §2

[7] = target: actin filaments; conditions: read-out: Affinity for actin; cited from earlier work
[8] = 10 μM Hit compound, 3 h incubation

Compound | Effect on actin-Lifeact cosedimentation [1] | Effect of Hit compound on primary FRET [2] | Effect on HEK293-6E cell viability [4, 8] | Effect on ABD pelleting without actin (aggregation) [5] | other results
CCCCCCCCCCCCCCCC(=O)OC(CC(=O)[O-])C[N+](C)(C)C (racemic) [palmitoyl-DL-carnitine] | decreased | decrease FRET | dramatically reduced |  | Effect on cell viability in mammalian cells [3]: reduce cell viability
CC(C)(Sc1ccc(CCN(CCCCC2CCCCC2)C(=O)NC2CCCCC2)cc1)C(=O)O [GW7647] | decreased | decrease FRET | dramatically reduced | promote aggregation | 
CCCc1c(-c2ccc(O)cc2)nn(-c2ccc(O)cc2)c1-c1ccc(O)cc1 [PPT] |  | decrease FRET |  | trend toward increasing | 
Clc1ccc(C(c2ccc(Cl)cc2)n2cc[n+](CC(OCc3ccc(Cl)cc3Cl)c3ccc(Cl)cc3Cl)c2)cc1 (centres unmarked) [calmidazolium] | decreased | decrease FRET | dramatically reduced |  | Effect on cell viability in mammalian cells [3]: reduce cell viability
Cc1cc2c(C(C)C)c(O)c(O)c(C=O)c2c(O)c1-c1c(C)cc2c(C(C)C)c(O)c(O)c(C=O)c2c1O [gossypol] |  | decrease FRET |  | promote aggregation | Reduction of cell viability ([3]; 10 μM ref 36, 37, 38): < 10%
[H]/N=C(/NCCCCC)N/N=C/c1c[nH]c2ccc(OC)cc12 [tegaserod] |  |  |  |  | Effect on ABD-L253P cosedimentation with actin [6]: no significant effect; Effect on Lifeact-mCherry cosedimentation with actin ([1]; 3 μM swinholide A, 50 μM tegaserod): did not alter; Reduction of Total FRET in primary FRET assay ([2]; 50 μM tegaserod, relative to DMSO): > 50% and 83%; Effect on HEK293-6E cell viability ([4]; 3 μM swinholide A, 50 μM tegaserod, 3 h): greatly diminished; Decrease in cell viability ([4]; 50 μM tegaserod, 3 h): 92%
GFP-ABD-L253P: green fluorescent protein fused to N terminus of the mutant β-III-spectrin ABD (L253P); FRET donor |  |  |  |  | Kd [7]: 75 nM

From paper PMC7948455, “Novel drug discovery platform for spinocerebellar ataxia, using fluorescence technology targeting β-III-spectrin” (The Journal of Biological Chemistry, 2020)
